In patent publication US12492186B2, “Bicyclic heterocyclic compounds useful as IRAK4 inhibitors” (BRISTOL-MYERS SQUIBB COMPANY, priority 2019, dated 2025) one finds IC50 data, which are given here for 33 molecules.

The term IC50 denotes the midpoint of a concentration-inhibition curve.

Sequence of IRAK4 (Q9NWZ3 whole entry, species assumed): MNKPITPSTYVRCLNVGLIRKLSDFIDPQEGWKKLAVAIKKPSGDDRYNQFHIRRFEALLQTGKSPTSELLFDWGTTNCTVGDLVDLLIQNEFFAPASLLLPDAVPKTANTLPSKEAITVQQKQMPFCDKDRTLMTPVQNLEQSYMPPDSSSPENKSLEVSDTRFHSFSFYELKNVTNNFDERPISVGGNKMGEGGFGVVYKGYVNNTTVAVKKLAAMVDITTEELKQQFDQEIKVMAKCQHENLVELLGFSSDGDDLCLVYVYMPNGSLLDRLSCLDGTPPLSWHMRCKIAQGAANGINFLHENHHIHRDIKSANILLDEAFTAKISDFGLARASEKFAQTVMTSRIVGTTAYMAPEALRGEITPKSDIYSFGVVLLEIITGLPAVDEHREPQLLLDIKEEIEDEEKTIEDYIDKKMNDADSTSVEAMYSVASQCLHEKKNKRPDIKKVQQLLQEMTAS

The target of this assay is IRAK4 (Homo sapiens (Human), UniProt Q9NWZ3). Nature of the assay: IRAK4 Inhibition Assay. The assay is classed as biochemical. Conditions: ATP 500 μM; IRAK4 0.6 nM; 60 min room temperature; Caliper LABCHIP 3000. On the procedure:
The assays were performed in U-bottom 384-well plates. The final assay volume was 30 μL prepared from 15 μL additions of enzyme and substrates (fluoresceinated peptide and ATP) and test compounds in assay buffer (20 mM HEPES pH 7.2, 10 mM MgCl2, 0.015% Brij 35 and 4 mM DTT). The reaction was initiated by the combination of IRAK4 with substrates and test compounds. The reaction mixture was incubated at room temperature for 60 min. and terminated by adding 45 μL of 35 mM EDTA to each sample. The reaction mixture was analyzed on the Caliper LABCHIP® 3000 (Caliper, Hopkinton, MA) by electrophoretic separation of the fluorescent substrate and phosphorylated product. Inhibition data were calculated by comparison to no enzyme control reactions for 100% inhibition and vehicle-only reactions for 0% inhibition. The final concentrations of reagents in the assays are ATP, 500 μM; FL-IPTSPITTTYFFFKKK peptide 1.5 μM; IRAK4, 0.6 nM; and DMSO, 1.6%.
As to `CC(C)Nc1c(C(=O)NC(C)(C)C(=O)N2CCOCC2)cnc2ccc(-c3cn[nH]c3)cc12` [Example 91, 4-(isopropylamino)-N-(2-methyl-1-morpholino-1-oxopropan-2-yl)-6-(1H-pyrazol-4-yl) quinoline-3-carboxamide], the IC50 was 1810 nM.

Consider `CC(=O)N[C@H]1CC[C@H](NC(=O)c2cnc3ccc(-c4cccnc4)nc3c2NC(C)C)CC1` [Example 153, N-((1r,4r)-4-acetamidocyclohexyl)-4-(isopropylamino)-6-(pyridin-3-yl)-1,5-naphthyridine-3-carboxamide], for which the concentration for half-maximal inhibition (IC50) amounted to 31.6 nM.

In the case of `CC(O)CCNC(=O)c1cnc2ccc(-c3cn[nH]c3)cc2c1NC1CC(F)(F)C1` (stereo not drawn) [Example 53, 4-((3,3-difluorocyclobutyl)amino)-N-(3-hydroxybutyl)-6-(1H-pyrazol-4-yl)quinoline-3-carboxamide], the IC50 came to 32.6 nM.

With `CC(C)Nc1c(C(=O)NC2CCOCC2)cnc2ccc(-c3cn[nH]c3)cc12` [Example 9, 4-(isopropylamino)-6-(1H-pyrazol-4-yl)-N-(tetrahydro-2H-pyran-4-yl)quinoline-3-carboxamide], the concentration for half-maximal inhibition (IC50) amounted to 23.3 nM.

As to `CC(O)CCNC(=O)c1cnc2ccc(-c3cn[nH]c3)cc2c1NCC(F)F` (stereo not drawn) [Example 64, 4-((2,2-difluoroethyl)amino)-N-(3-hydroxybutyl)-6-(1H-pyrazol-4-yl)quinoline-3-carboxamide], the half-maximal inhibitory concentration (IC50) came out at 28 nM.

Regarding `CC(C)(O)CCNC(=O)c1cnc2ccc(-c3cn[nH]c3)cc2c1NCC(F)F` [Example 62, 4-((2,2-difluoroethyl)amino)-N-(3-hydroxy-3-methylbutyl)-6-(1H-pyrazol-4-yl)quinoline-3-carboxamide], the 50% inhibitory concentration (IC50) worked out at 22.3 nM.

As for `CC(C)Nc1c(C(=O)NC[C@@H](F)C(C)(C)O)cnc2ccc(-c3cccnc3)cc12` [Example 3, (R)—N-(2-fluoro-3-hydroxy-3-methylbutyl)-4-(isopropylamino)-6-(pyridin-3-yl) quinoline-3-carboxamide], the IC50 came out at 46.2 nM.

Take `CC(C)Nc1c(C(=O)NCCC(C)(C)O)cnc2ccc(-c3ccc(F)nc3)cc12` [Example 70, 6-(6-fluoropyridin-3-yl)-N-(3-hydroxy-3-methylbutyl)-4-(isopropylamino)quinoline-3-carboxamide]: the half-inhibitory concentration (IC50) amounted to 119 nM.

For `O=C(NCCC(F)F)c1cnc2ccc(-c3cn[nH]c3)cc2c1NCC(F)F` [Example 67, 4-((2,2-difluoroethyl)amino)-N-(3,3-difluoropropyl)-6-(1H-pyrazol-4-yl)quinoline-3-carboxamide], the IC50 stood at 22.9 nM.

For the molecule `CC(C)Nc1c(C(=O)NC2CCN(C(=O)CC(F)(F)F)CC2)cnc2ccc(-c3cn[nH]c3)cc12` [Example 83, 4-(isopropylamino)-6-(1H-pyrazol-4-yl)-N-(1-(3,3,3-trifluoropropanoyl)piperidin-4-yl)quinoline-3-carboxamide], the IC50 turned out to be 24.5 nM.

`CNC(=O)CCNC(=O)c1cnc2ccc(-c3cn[nH]c3)cc2c1NCC(F)F` [Example 66, 4-((2,2-difluoroethyl)amino)-N-(3-(methylamino)-3-oxopropyl)-6-(1H-pyrazol-4-yl)quinoline-3-carboxamide]: the IC50 was found to be 60.7 nM.

Consider `Cc1cc(CNC(=O)c2cnc3ccc(-c4cn[nH]c4)cc3c2NC(C)C)on1` [Example 16, 4-(isopropylamino)-N-((3-methylisoxazol-5-yl)methyl)-6-(1H-pyrazol-4-yl)quinoline-3-carboxamide], for which the IC50 worked out at 40.2 nM.

`CC(C)Nc1c(C(=O)N[C@H](C)CCO)cnc2ccc(-c3cn[nH]c3)cc12` [Example 13, (R)—N-(4-hydroxybutan-2-yl)-4-(isopropylamino)-6-(1H-pyrazol-4-yl)quinoline-3-carboxamide]: the IC50 stood at 88.3 nM.

Take `CC(C)(O)[C@H](F)CNC(=O)c1cnc2ccc(-c3cn[nH]c3)cc2c1Nc1cnn(CC(F)F)c1` [Example 33, (R)-4-((1-(2,2-difluoroethyl)-1H-pyrazol-4-yl)amino)-N-(2-fluoro-3-hydroxy-3-methylbutyl)-6-(1H-pyrazol-4-yl)quinoline-3-carboxamide]: the 50% inhibitory concentration (IC50) was 157 nM.

With `CC(C)Nc1c(C(=O)NC2CCCOC2)cnc2ccc(-c3cn[nH]c3)cc12` (stereo not drawn) [Example 8, 4-(isopropylamino)-6-(1H-pyrazol-4-yl)-N-(tetrahydro-2H-pyran-3-yl)quinoline-3-carboxamide], the IC50 was determined as 24.1 nM.

Consider `CC(C)(O)[C@H](F)CNC(=O)c1cnc2ccc(-c3cncs3)cc2c1NC1COC1` [Example 35, (R)—N-(2-fluoro-3-hydroxy-3-methylbutyl)-4-(oxetan-3-ylamino)-6-(thiazol-5-yl) quinoline-3-carboxamide], for which the half-maximal inhibitory concentration (IC50) worked out at 78 nM.

Consider `O=C(NCCC1CC1)c1cnc2ccc(-c3cn[nH]c3)cc2c1NCC(F)F` [Example 75, N-(2-cyclopropylethyl)-4-((2,2-difluoroethyl)amino)-6-(1H-pyrazol-4-yl)quinoline-3-carboxamide], for which the 50% inhibitory concentration (IC50) came out at 20.1 nM.

As to `CC(C)Nc1c(C(N)=O)cnc2ccc(-c3cn[nH]c3)cc12` [Example 29, 4-(isopropylamino)-6-(1H-pyrazol-4-yl)quinoline-3-carboxamide], the IC50 amounted to 21.7 nM.

Turning to `CC(C)Nc1c(C(=O)NCCC(C)(C)O)cnc2ccc(-c3cccnc3)nc12` [Example 146, N-(3-hydroxy-3-methylbutyl)-4-(isopropylamino)-6-(pyridin-3-yl)-1,5-naphthyridine-3-carboxamide], the IC50 amounted to 89.8 nM.

`CC(C)(O)CCNc1c(C(N)=O)cnc2ccc(-c3cn[nH]c3)cc12` [Example 99, 4-((3-hydroxy-3-methylbutyl)amino)-6-(1H-pyrazol-4-yl)quinoline-3-carboxamide]: the IC50 came out at 264 nM.

Take `CC(C)Nc1c(C(=O)N[C@H]2C[C@H](O)C2)cnc2ccc(-c3cn[nH]c3)cc12` [Example 60, N-((1r,3r)-3-hydroxycyclobutyl)-4-(isopropylamino)-6-(1H-pyrazol-4-yl)quinoline-3-carboxamide]: the concentration for half-maximal inhibition (IC50) came to 38 nM.

For `CC(C)Nc1c(C(=O)NCCC(C)(C)O)cnc2ccc(-c3ccc(C#N)nc3)cc12` [Example 69, 6-(6-cyanopyridin-3-yl)-N-(3-hydroxy-3-methylbutyl)-4-(isopropylamino)quinoline-3-carboxamide], the IC50 worked out at 131 nM.

As for `CC(C)Nc1c(C(=O)NCCN2CCCCC2=O)cnc2ccc(-c3cn[nH]c3)cc12` [Example 86, 4-(isopropylamino)-N-(2-(2-oxopiperidin-1-yl)ethyl)-6-(1H-pyrazol-4-yl)quinoline-3-carboxamide], the half-inhibitory concentration (IC50) is 28.6 nM.

In the case of `CC(C)(O)CCNC(=O)c1cnc2ccc(-c3cn[nH]c3)cc2c1NC1CC(F)(F)C1` [Example 52, 4-((3,3-difluorocyclobutyl)amino)-N-(3-hydroxy-3-methylbutyl)-6-(1H-pyrazol-4-yl)quinoline-3-carboxamide], the IC50 worked out at 23.9 nM.

For the molecule `CC(=O)NC1CC(NC(=O)c2cnc3ccc(-c4cn[nH]c4)cc3c2NC2CC(F)(F)C2)C1` (stereo not drawn) [Example 57, N-((1r,3r)-3-acetamidocyclobutyl)-4-((3,3-difluorocyclobutyl)amino)-6-(1H-pyrazol-4-yl)quinoline-3-carboxamide], the IC50 turned out to be 22.6 nM.

Turning to `O=C(NCCN1CCOCC1)c1cnc2ccc(-c3cn[nH]c3)cc2c1NCC(F)F` [Example 63, 4-((2,2-difluoroethyl)amino)-N-(2-morpholinoethyl)-6-(1H-pyrazol-4-yl)quinoline-3-carboxamide], the concentration for half-maximal inhibition (IC50) worked out at 34.4 nM.

As for `CCCc1nc(-c2cnc3ccc(-c4cn[nH]c4)cc3c2NC(C)C)n[nH]1` [Example 125, N-isopropyl-3-(5-propyl-1H-1,2,4-triazol-3-yl)-6-(1H-pyrazol-4-yl)quinolin-4-amine], the IC50 came to 83.6 nM.

As to `CC(C)Nc1c(C(=O)NCCC2CC2)cnc2ccc(-c3ccnc(C#N)c3)nc12` [Example 157, 6-(2-cyanopyridin-4-yl)-N-(2-cyclopropylethyl)-4-(isopropylamino)-1,5-naphthyridine-3-carboxamide], the 50% inhibitory concentration (IC50) is 280 nM.

For `CNc1c(C(N)=O)cnc2ccc(-c3cncs3)cc12` [Example 111, 4-(methylamino)-6-(thiazol-5-yl)quinoline-3-carboxamide], the concentration for half-maximal inhibition (IC50) is 1550 nM.

Take `CC(C)Nc1c(C(=O)NC2CN(S(C)(=O)=O)C2)cnc2ccc(-c3cn[nH]c3)cc12` [Example 92, 4-(isopropylamino)-N-(1-(methylsulfonyl)azetidin-3-yl)-6-(1H-pyrazol-4-yl)quinoline-3-carboxamide]: the IC50 came out at 32.2 nM.

As to `O=C(NCCC(F)(F)F)c1cnc2ccc(-c3cn[nH]c3)cc2c1NCC(F)F` [Example 68, 4-((2,2-difluoroethyl)amino)-6-(1H-pyrazol-4-yl)-N-(3,3,3-trifluoropropyl)quinoline-3-carboxamide], the IC50 came out at 35.1 nM.

With `COC(=O)NC1CC(NC(=O)c2cnc3ccc(-c4cn[nH]c4)cc3c2NC2CC(F)(F)C2)C1` (stereo not drawn) [Example 58, methyl ((1r,3r)-3-(4-((3,3-difluorocyclobutyl)amino)-6-(1H-pyrazol-4-yl)quinoline-3-carboxamido)cyclobutyl)carbamate], the concentration for half-maximal inhibition (IC50) amounted to 29.9 nM.

Consider `CC(C)Nc1c(C(=O)NC[C@@H](F)C(C)(C)O)cnc2ccc(-c3cccc(C#N)c3)cc12` [Example 6, (R)-6-(3-cyanophenyl)-N-(2-fluoro-3-hydroxy-3-methylbutyl)-4-(isopropylamino) quinoline-3-carboxamide], for which the IC50 was found to be 145 nM.
